According to patent US12371454B2, “Cyclic peptide compound having Kras inhibitory action” (priority 2019, dated 2025):
Starred links: 1 amine or outer side, 2 acyl side, 3 side chain; linkers in the order of their positions; H or OH if unused. Positions of bridges follow the written chain, without caps; N, C: chain ends. Non-standard residues stand in square brackets, D forms with d. Residues, ends and D or L forms follow the SMILES beside them. *: point of attachment. hPhe(3-Cl-4-CF3) = N[C@@H](CCc1ccc(C(F)(F)F)c(Cl)c1)C(=O)O; hPhe(3-OMe-4-CF3) = COc1cc(CC[C@H](N)C(=O)O)ccc1C(F)(F)F; NMePhe(3-CN) = CN[C@@H](Cc1cccc(C#N)c1)C(=O)O; NMePhe(4-Me) = CN[C@@H](Cc1ccc(C)cc1)C(=O)O; NMePhe(2-Cl) = CN[C@@H](Cc1ccccc1Cl)C(=O)O; NMedβ3hAla = C[C@H](CC(=O)[*:2])N(C)[*:1]; NMeGly(cPent) = CN[C@H](C(=O)O)C1CCCC1; X70 = CC(C)(O)COCCN(CC(=O)[*:2])[*:1]; X84 = O=C(CN(CCc1ccncc1)[*:1])[*:2]; NMeCha = CN[C@@H](CC1CCCCC1)C(=O)O; NMeChg = CN[C@H](C(=O)O)C1CCCCC1; NMeF = CN[C@@H](Cc1ccccc1)C(=O)O; NMeI = CC[C@H](C)[C@H](NC)C(=O)O; NMeD = CN[C@@H](CC(=O)O)C(=O)O; Benzyl(4-Cl) = Clc1ccc(C*)cc1; NMeL = CN[C@@H](CC(C)C)C(=O)O; d(β3hP) = O=C(O)C[C@H]1CCCN1; NMeNva = CCC[C@H](NC)C(=O)O; NMeV = CN[C@H](C(=O)O)C(C)C; d(β3hA) = C[C@@H](N)CC(=O)O; NMeS = CN[C@@H](CO)C(=O)O; NMeA = CN[C@@H](C)C(=O)O; Piperidide = C1CCN(*)CC1; Pyrrolidide = C1CCN(*)C1; dNMeA = CN[C@H](C)C(=O)O; Ac5c = NC1(C(=O)O)CCCC1; Aze = O=C(O)[C@@H]1CCN1; X76 = Clc1cccc(C*)c1; X27 = Clc1ccccc1C*; NEtG = CCNCC(=O)O; Sar = CNCC(=O)O; Propyl = CCC*

These molecules were tested against T1, Kras and SOS1 (biotin-tagged human Kras loaded with GDP, His-tagged human SOS1) (Homo sapiens, UniProt P01116, G12D) (assay: Protein-protein interaction inhibition between Kras and SOS1 (KrasGl2D-SOS PPI) using AlphaScreen). Settings: AlphaScreen; biotin-tagged human Kras loaded with GDP, His-tagged human SOS1; read-out: KRAS G12D-SOS PPI IC50.
T1 construct: made in house; host or cells: E. coli (stated for Kras only)
T1 sequence (P01116 1-188 isoform P01116-2 G12D): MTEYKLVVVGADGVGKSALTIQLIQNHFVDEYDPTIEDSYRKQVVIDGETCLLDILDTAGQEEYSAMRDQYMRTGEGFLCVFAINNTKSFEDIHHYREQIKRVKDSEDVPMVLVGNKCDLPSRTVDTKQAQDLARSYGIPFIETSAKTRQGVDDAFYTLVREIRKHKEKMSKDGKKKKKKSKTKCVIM
Type: binding
How it was run: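 Read-out is acceptor-bead light at 520-620 nm, arising when 680 nm-irradiated nickel donor beads pass singlet oxygen to streptavidin acceptors. The bead pair links His-tagged SOS1 with biotin-tagged, GDP-bound Kras from E. coli.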

| SMILES | IC50 [nM] |
| --- | --- |
| CCC[C@H]1C(=O)N[C@@H]([C@@H](C)CC)C(=O)N(C)CC(=O)N(C)CC(=O)N(C)[C@@H](CC2CCCCC2)C(=O)N(C)CC(=O)N[C@@H](CCc2ccc(C(F)(F)F)c(Cl)c2)C(=O)N2CCC[C@H]2C(=O)NC2(CCCC2)C(=O)N(C)[C@@H](C2CCCCC2)C(=O)N(C)[C@H](C(=O)N2CCCC2)CC(=O)N1C [Compound 2001] ([NMeNva]I[Sar][Sar][NMeCha][Sar][hPhe(3-Cl-4-CF3)]P[Ac5c][NMeChg][NMeD]-Pyrrolidide; lactam N-11) | 0.48 |
| CC[C@H](C)[C@@H]1NC(=O)[C@H](CC(C)C)N(C)C(=O)C[C@@H](C(=O)N(C)C)N(C)C(=O)[C@H]([C@@H](C)CC)N(C)C(=O)C2(CCCC2)NC(=O)[C@H](Cc2cccc(C#N)c2)N(C)C(=O)[C@H](CCc2ccc(C(F)(F)F)c(Cl)c2)NC(=O)CN(C)C(=O)[C@H](Cc2ccc(C)cc2)N(C)C(=O)[C@@H]2CCN2C(=O)[C@H](C)N(C)C1=O [Compound 2002] ([NMeL]I[NMeA][Aze][NMePhe(4-Me)][Sar][hPhe(3-Cl-4-CF3)][NMePhe(3-CN)][Ac5c][NMeI][NMeD]-NMe2; lactam N-11) | 3 |
| CC[C@H](C)[C@@H]1NC(=O)[C@H](CC(C)C)N(C)C(=O)C[C@H]2CCCN2C(=O)[C@H]([C@@H](C)CC)N(C)C(=O)C2(CCCC2)NC(=O)[C@@H]2CCCN2C(=O)[C@H](CCc2ccc(C(F)(F)F)c(Cl)c2)NC(=O)CN(C)C(=O)[C@H](Cc2ccc(C)cc2)N(C)C(=O)[C@@H]2CCN2C(=O)[C@H](C)N(C)C1=O [Compound 2003] (cyclo([Ac5c][NMeI][d(β3hP)][NMeL]I[NMeA][Aze][NMePhe(4-Me)][Sar][hPhe(3-Cl-4-CF3)]P)) | 8.6 |
| CC[C@H](C)[C@@H]1NC(=O)[C@H](C)N(C)C(=O)C[C@@H](C)NC(=O)[C@H](C(C)C)N(C)C(=O)C2(CCCC2)NC(=O)[C@@H]2CCCN2C(=O)[C@H](CCc2ccc(C(F)(F)F)c(Cl)c2)NC(=O)[C@@H](C)N(C)C(=O)[C@H](CC2CCCCC2)N(C)C(=O)CN(C)C(=O)[C@@H]2CCN2C1=O [Compound 2010] (cyclo([Ac5c][NMeV][d(β3hA)][NMeA]I[Aze][Sar][NMeCha][dNMeA][hPhe(3-Cl-4-CF3)]P)) | 220 |
| CC[C@H](C)[C@@H]1NC(=O)[C@H](C)N(C)C(=O)C[C@@H](C(=O)N(C)C)N(C)C(=O)[C@H]([C@@H](C)CC)N(C)C(=O)C2(CCCC2)NC(=O)[C@H](Cc2ccccc2Cl)N(C)C(=O)[C@H](CCc2ccc(C(F)(F)F)c(Cl)c2)NC(=O)CN(C)C(=O)[C@H](Cc2ccc(C)cc2)N(C)C(=O)[C@@H]2CCN2C(=O)[C@H](C)N(C)C1=O [Compound 2011] ([NMeA]I[NMeA][Aze][NMePhe(4-Me)][Sar][hPhe(3-Cl-4-CF3)][NMePhe(2-Cl)][Ac5c][NMeI][NMeD]-NMe2; lactam N-11) | 17 |
| CC[C@H](C)[C@@H]1NC(=O)[C@H](C)N(C)C(=O)C[C@@H](C)NC(=O)[C@H](C(C)C)N(C)C(=O)C2(CCCC2)NC(=O)[C@@H]2CCCN2C(=O)[C@H](CCc2ccc(C(F)(F)F)c(Cl)c2)NC(=O)[C@@H](C)N(C)C(=O)[C@H](CC2CCCCC2)N(C)C(=O)[C@@H]2CCCN2C(=O)CN(CC)C1=O [Compound 2014] (cyclo([Ac5c][NMeV][d(β3hA)][NMeA]I[NEtG]P[NMeCha][dNMeA][hPhe(3-Cl-4-CF3)]P)) | 340 |
| CC[C@H](C)[C@@H]1NC(=O)[C@H](C)N(C)C(=O)C[C@@H](C)NC(=O)[C@H](C(C)C)N(C)C(=O)C2(CCCC2)NC(=O)[C@@H]2CCCN2C(=O)[C@H](CCc2ccc(C(F)(F)F)c(Cl)c2)NC(=O)[C@@H](C)N(C)C(=O)[C@H](CC2CCCCC2)N(C)C(=O)[C@@H]2CCN2C(=O)[C@H](CC2CCCCC2)N(C)C1=O [Compound 2015] (cyclo([Ac5c][NMeV][d(β3hA)][NMeA]I[NMeCha][Aze][NMeCha][dNMeA][hPhe(3-Cl-4-CF3)]P)) | 260 |
| CC[C@H](C)[C@@H]1NC(=O)[C@H](C)N(C)C(=O)C[C@@H](C)NC(=O)[C@H](C(C)C)N(C)C(=O)C2(CCCC2)NC(=O)[C@@H]2CCCN2C(=O)[C@H](CCc2ccc(C(F)(F)F)c(Cl)c2)NC(=O)[C@@H](C)N(C)C(=O)[C@H](CC2CCCCC2)N(C)C(=O)[C@@H]2CCN2C(=O)[C@H](Cc2ccccc2)N(C)C1=O [Compound 2019] (cyclo([Ac5c][NMeV][d(β3hA)][NMeA]I[NMeF][Aze][NMeCha][dNMeA][hPhe(3-Cl-4-CF3)]P)) | 110 |
| CC[C@H](C)[C@@H]1NC(=O)[C@H](CC(C)C)N(C)C(=O)C[C@@H](C(=O)N(C)C)N(C)C(=O)[C@H](C2CCCC2)N(C)C(=O)C2(CCCC2)NC(=O)CN(CCOCC(C)(C)O)C(=O)[C@H](CCc2ccc(C(F)(F)F)c(Cl)c2)NC(=O)CN(C)C(=O)[C@H](CC2CCCCC2)N(C)C(=O)[C@@H]2CCN2C(=O)[C@H](C)N(C)C1=O [Compound 2023] ([NMeL]I[NMeA][Aze][NMeCha][Sar][hPhe(3-Cl-4-CF3)][X70][Ac5c][NMeGly(cPent)][NMeD]-NMe2; lactam N-11) | 1.7 |
| CCCOC[C@H]1C(=O)N(C)CC(=O)N[C@@H](CCc2ccc(C(F)(F)F)c(Cl)c2)C(=O)N(CCOCC(C)(C)O)CC(=O)NC2(CCCC2)C(=O)N(C)[C@@H]([C@@H](C)CC)C(=O)N(C)[C@H](C)CC(=O)N(C)[C@@H](CC(C)C)C(=O)N[C@@H]([C@@H](C)CC)C(=O)N(C)[C@@H](C)C(=O)N2CC[C@H]2C(=O)N1C [Compound 2027] (cyclo([Ac5c][NMeI][NMedβ3hAla][NMeL]I[NMeA][Aze][NMeS](Propyl)[Sar][hPhe(3-Cl-4-CF3)][X70])) | 110 |
| CC[C@H](C)[C@@H]1NC(=O)[C@H](CC(C)C)N(C)C(=O)C[C@@H](C(=O)N(C)C)N(C)C(=O)[C@H]([C@@H](C)CC)N(C)C(=O)C2(CCCC2)NC(=O)CN(CCOCC(C)(C)O)C(=O)[C@H](CCc2ccc(C(F)(F)F)c(Cl)c2)NC(=O)CN(C)C(=O)[C@H](CC2CCCCC2)N(C)C(=O)[C@@H]2CCN2C(=O)[C@H](C)N(C)C1=O [Compound 2028] ([NMeL]I[NMeA][Aze][NMeCha][Sar][hPhe(3-Cl-4-CF3)][X70][Ac5c][NMeI][NMeD]-NMe2; lactam N-11) | 11 |
| CC[C@H](C)[C@@H]1NC(=O)[C@H](CC(C)C)N(C)C(=O)C[C@@H](C(=O)N2CCCCC2)N(C)C(=O)[C@H](C2CCCCC2)N(C)C(=O)C2(CCCC2)NC(=O)CN(CCc2ccncc2)C(=O)[C@H](CCc2ccc(C(F)(F)F)c(Cl)c2)NC(=O)CN(C)C(=O)[C@H](CC2CCCCC2)N(C)C(=O)CN(C)C(=O)CN(C)C1=O [Compound 2029] ([NMeL]I[Sar][Sar][NMeCha][Sar][hPhe(3-Cl-4-CF3)][X84][Ac5c][NMeChg][NMeD]-Piperidide; lactam N-11) | 0.83 |
| CC[C@H](C)[C@@H]1NC(=O)[C@H](CC(C)C)N(C)C(=O)C[C@@H](C(=O)N(C)C)N(C)C(=O)[C@H]([C@@H](C)CC)N(C)C(=O)C2(CCCC2)NC(=O)CN(CCOCC(C)(C)O)C(=O)[C@H](CCc2ccc(C(F)(F)F)c(Cl)c2)NC(=O)CN(C)C(=O)[C@H](Cc2ccc(C)cc2)N(C)C(=O)[C@@H]2CCN2C(=O)[C@H](C)N(C)C1=O [Compound 2034] ([NMeL]I[NMeA][Aze][NMePhe(4-Me)][Sar][hPhe(3-Cl-4-CF3)][X70][Ac5c][NMeI][NMeD]-NMe2; lactam N-11) | 2 |
| CC[C@H](C)[C@@H]1NC(=O)[C@H](C)N(C)C(=O)C[C@@H](C(=O)N2CCCCC2)N(C)C(=O)[C@H](C2CCCCC2)N(C)C(=O)C2(CCCC2)NC(=O)[C@@H]2CCCN2C(=O)[C@H](COc2ccc(Cl)cc2)NC(=O)CN(C)C(=O)[C@H](CC2CCCCC2)N(C)C(=O)CN(C)C(=O)CN(C)C1=O [Compound 2042, (3S,9S,18S,21S,25S,28S,34S)-3-[(4-chlorophenoxy)methyl]-28-cyclohexyl-9-(cyclohexylmethyl)-7,10,13,16,21,22,26,29-octamethyl-18-[(1S)-1-methylpropyl]-25-(piperidine-1-carbonyl)spiro[1,4,7,10,13,16,19,22,26,29,32-undecazabicyclo[32.3.0]heptatriacontane-31,1′-cyclopentane]-2,5,8,11,14,17,20,23,27,30,33-undecone] | 70 |
| CC[C@H](C)[C@@H]1NC(=O)[C@H](C)N(C)C(=O)C[C@@H](C(=O)N2CCCCC2)N(C)C(=O)[C@H](C2CCCCC2)N(C)C(=O)C2(CCCC2)NC(=O)[C@@H]2CCCN2C(=O)[C@H](COCc2ccccc2Cl)NC(=O)CN(C)C(=O)[C@H](CC2CCCCC2)N(C)C(=O)CN(C)C(=O)CN(C)C1=O [Compound 2043] ([NMeA]I[Sar][Sar][NMeCha][Sar]S(X27)P[Ac5c][NMeChg][NMeD]-Piperidide; lactam N-11) | 12 |
| CC[C@H](C)[C@@H]1NC(=O)[C@H](C)N(C)C(=O)C[C@@H](C(=O)N2CCCCC2)N(C)C(=O)[C@H](C2CCCCC2)N(C)C(=O)C2(CCCC2)NC(=O)[C@@H]2CCCN2C(=O)[C@H](COCc2ccc(Cl)cc2)NC(=O)CN(C)C(=O)[C@H](CC2CCCCC2)N(C)C(=O)CN(C)C(=O)CN(C)C1=O [Compound 2044] ([NMeA]I[Sar][Sar][NMeCha][Sar]S(Benzyl(4-Cl))P[Ac5c][NMeChg][NMeD]-Piperidide; lactam N-11) | 7.9 |
| CC[C@H](C)[C@@H]1NC(=O)[C@H](C)N(C)C(=O)C[C@@H](C(=O)N2CCCCC2)N(C)C(=O)[C@H](C2CCCCC2)N(C)C(=O)C2(CCCC2)NC(=O)[C@@H]2CCCN2C(=O)[C@H](COCc2cccc(Cl)c2)NC(=O)CN(C)C(=O)[C@H](CC2CCCCC2)N(C)C(=O)CN(C)C(=O)CN(C)C1=O [Compound 2045] ([NMeA]I[Sar][Sar][NMeCha][Sar]S(X76)P[Ac5c][NMeChg][NMeD]-Piperidide; lactam N-11) | 15 |
| CC[C@H](C)[C@@H]1NC(=O)[C@H](CC(C)C)N(C)C(=O)C[C@@H](C(=O)N2CCCCC2)N(C)C(=O)[C@H](C2CCCC2)N(C)C(=O)C2(CCCC2)NC(=O)[C@@H]2CCCN2C(=O)[C@H](CCc2ccc(C(F)(F)F)c(OC)c2)NC(=O)CN(C)C(=O)[C@H](CC2CCCCC2)N(C)C(=O)[C@@H]2CCN2C(=O)[C@H](C)N(C)C1=O [Compound 2080] ([NMeL]I[NMeA][Aze][NMeCha][Sar][hPhe(3-OMe-4-CF3)]P[Ac5c][NMeGly(cPent)][NMeD]-Piperidide; lactam N-11) | 0.33 |
